Laboratory results published in US20250145637A1, “SULFONAMIDE DERIVATIVE, PREPARATION METHOD THEREFOR AND MEDICAL USE THEREOF” (Jiangsu Hengrui Pharmaceuticals Co. Ltd., priority 2021, published 2025).
Where two headings read alike, the source gives them in different places.

Assay: Pharmacokinetic evaluation in C57 mice
Assay type: in vivo
Conditions: for Vd / AUC(0-t) / half-life / Cmax / bioavailability / CL/F: both sexes, mouse, plasma; for Vd: read-out: Apparent distribution volume Vss; for AUC(0-t): read-out: Area under curve AUC0-t; for half-life: read-out: Half-life T½ (converted); for Cmax: read-out: Plasma concentration Cmax; for bioavailability: oral, i.g. 2.0 mg/kg vs i.v. 1.0 mg/kg, read-out: Bioavailability F (%); for CL/F: read-out: Clearance rate CL/F; for Clearance rate CL/F: i.v.
Method: C57 mice were used as test animals. After intragastric (i.g.)/intravenous (i.v.) administration of the compounds of the present disclosure to C57 mice, the plasma concentrations at different time points were measured by the LC/MS/MS method. The pharmacokinetic behavior of the compounds of the present disclosure in C57 mice was studied and their pharmacokinetic profiles were evaluated.
Compound 2 and compound 3.
36 C57 mice, of which half were male and half female, were evenly divided into 4 groups of 9, 3 mice per time point per group. The mice were provided by Vital River Laboratory Animal Technology Co., Ltd. The mice were intragastrically and intravenously administered the compounds.
2.3. Compound Solution Preparation
A certain amount of test compound was weighed out and dissolved in 5% DMSO+5% tween 80+90% normal saline to prepare a 0.1 mg/mL colorless clear solution (for the intragastric administration groups) and a 0.1 mg/mL colorless clear solution (for the intravenous administration groups).
Intragastric administration groups: The dose was 2.0 mg/kg, and the volume was 0.2 mL/10 g.
Intravenous administration groups: The dose was 1.0 mg/kg, and the volume was 0.1 mL/10 g.
Intragastric administration groups: 0.1 mL blood samples were collected before the administration and 0.25 h, 0.5 h, 1.0 h, 2.0 h, 4.0 h, 6.0 h, 8.0 h, 11.0 h and 24.0 h post-dose. The blood samples were placed into EDTA-K2 anticoagulation tubes and centrifuged at 10,000 rpm for 1 min (4° C.), and plasma was separated within 1 h and stored at −80° C. before analysis. The process from the blood collection to the centrifugation was performed in an ice bath.
Intravenous administration groups: Blood samples were collected before administration and 5 min, 0.25 h, 0.5 h, 1.0 h, 2.0 h, 4.0 h, 8.0 h, 11.0 h and 24 h post-dose and were treated in the same way as those collected from the intragastric administration groups.
Measurement of plasma concentrations in C57 mice after compounds were administered in different concentrations: 25 μL samples of the C57 mouse plasma collected at various time points post-dose were taken, and to each of the samples was added 50 μL of diclofenac (an internal standard for compound 2, 100 ng/mL) or 25 μL of tolbutamide (an internal standard for compound 3, […], purchased from LGC Ltd., UK). Protein was precipitated with 200 μL of acetonitrile, and after 5 min of vortexing, the mixtures were centrifuged at 3700 rpm for 10 min. 120 μL of supernatant was taken and vortexed with 30 μL of water for 5 min, and a 5 μL sample was taken for LC/MS/MS analysis. 4. Pharmacokinetic parameters

COc1cccc(OC)c1S(=O)(=O)Nc1noc2cc(Cn3cccn3)c3c(c12)OCCC3 [Compound 2, N-(5-((1H-pyrazol-1-yl)methyl)-3,4-dihydro-2H-chromeno[8,7-d]isoxazol-9-yl)-2,6-dimethoxybenzenesulfonamide]
Vd (iv, 1.0 mg/kg): 0.093 L/kg | AUC(0-t) (iv, 1.0 mg/kg): 188 µg·h/mL | half-life (iv, 1.0 mg/kg): 18.4 h | Cmax (iv, 1.0 mg/kg): 17600 ng/mL | bioavailability: 108% | AUC(0-t) (po, i.g., 2.0 mg/kg): 405 µg·h/mL | CL/F (po, i.g., 2.0 mg/kg): 1.98 mL/h/kg | half-life (po, i.g., 2.0 mg/kg): 29.7 h | Cmax (po, i.g., 2.0 mg/kg): 40100 ng/mL | Clearance rate CL/F (1.0 mg/kg): 3.02 mL/h/kg

COc1ccccc1S(=O)(=O)Nc1noc2cc(Cn3cccn3)c3c(c12)OCCC3 [Compound 3, N-(5-((1H-pyrazol-1-yl)methyl)-3,4-dihydro-2H-chromeno[8,7-d]isoxazol-9-yl)-2-methoxybenzenesulfonamide]
Vd (iv, 1.0 mg/kg): 0.102 L/kg | AUC(0-t) (iv, 1.0 mg/kg): 209 µg·h/mL | half-life (iv, 1.0 mg/kg): 49 h | Cmax (iv, 1.0 mg/kg): 22100 ng/mL | bioavailability: 94.1% | AUC(0-t) (po, i.g., 2.0 mg/kg): 393 µg·h/mL | CL/F (po, i.g., 2.0 mg/kg): 1.35 mL/h/kg | half-life (po, i.g., 2.0 mg/kg): 58.3 h | Cmax (po, i.g., 2.0 mg/kg): 33000 ng/mL | Clearance rate CL/F (1.0 mg/kg): 1.51 mL/h/kg
